Experimental data as given in ChEMBL document CHEMBL5390253, “Discovery of Selective and Potent Macrocyclic CDK9 Inhibitors for the Treatment of Osimertinib-Resistant Non-Small-Cell Lung Cancer” (J Med Chem, 2023).
The source made the active and inactive calls. The rule behind the calls is not given here.

Key:
[1] = molecular target: Receptor-type tyrosine-protein kinase FLT3 (Homo sapiens) (UniProt P36888); experiment: Inhibition of FLT3 (unknown origin) at 100 nM preincubated for 10 mins followed by substrate addition and measured after 60 mins in presence of ATP by ADP-Glo reagent based assay relative to control; conditions: time 70.0 min
Chain of Receptor-type tyrosine-protein kinase FLT3 (Homo sapiens) (P36888 whole entry): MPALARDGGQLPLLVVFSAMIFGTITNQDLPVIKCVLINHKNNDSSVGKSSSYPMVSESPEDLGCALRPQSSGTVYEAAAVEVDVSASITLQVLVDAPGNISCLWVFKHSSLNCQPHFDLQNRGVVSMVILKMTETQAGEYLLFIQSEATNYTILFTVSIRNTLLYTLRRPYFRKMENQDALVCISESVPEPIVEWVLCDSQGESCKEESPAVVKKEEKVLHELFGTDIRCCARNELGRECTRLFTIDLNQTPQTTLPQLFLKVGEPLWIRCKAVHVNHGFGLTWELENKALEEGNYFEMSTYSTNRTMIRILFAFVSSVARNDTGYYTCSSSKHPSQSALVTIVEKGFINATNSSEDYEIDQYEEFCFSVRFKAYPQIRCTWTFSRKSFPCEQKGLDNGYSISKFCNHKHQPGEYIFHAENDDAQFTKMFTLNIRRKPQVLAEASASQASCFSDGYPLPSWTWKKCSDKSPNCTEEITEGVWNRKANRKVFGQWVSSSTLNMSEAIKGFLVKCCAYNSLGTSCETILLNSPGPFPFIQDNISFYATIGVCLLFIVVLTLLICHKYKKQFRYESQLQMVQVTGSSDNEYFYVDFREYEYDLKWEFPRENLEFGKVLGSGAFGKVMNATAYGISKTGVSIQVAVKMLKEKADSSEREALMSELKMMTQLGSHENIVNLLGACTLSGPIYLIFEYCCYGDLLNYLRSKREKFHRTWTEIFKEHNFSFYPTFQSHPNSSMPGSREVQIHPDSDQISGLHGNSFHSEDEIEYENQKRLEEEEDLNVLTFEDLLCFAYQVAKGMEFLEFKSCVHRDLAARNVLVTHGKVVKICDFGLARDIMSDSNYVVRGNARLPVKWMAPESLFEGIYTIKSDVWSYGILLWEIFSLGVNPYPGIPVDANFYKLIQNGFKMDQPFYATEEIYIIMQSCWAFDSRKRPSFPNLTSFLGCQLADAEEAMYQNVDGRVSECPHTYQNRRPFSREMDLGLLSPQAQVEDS

[2] = molecular target: Tyrosine-protein kinase JAK2 (Homo sapiens) (UniProt O60674); experiment: Inhibition of JAK2 (unknown origin) at 100 nM preincubated for 10 mins followed by substrate addition and measured after 60 mins in presence of ATP by ADP-Glo reagent based assay relative to control; conditions: time 70.0 min
Chain of Tyrosine-protein kinase JAK2 (Homo sapiens) (O60674 whole entry): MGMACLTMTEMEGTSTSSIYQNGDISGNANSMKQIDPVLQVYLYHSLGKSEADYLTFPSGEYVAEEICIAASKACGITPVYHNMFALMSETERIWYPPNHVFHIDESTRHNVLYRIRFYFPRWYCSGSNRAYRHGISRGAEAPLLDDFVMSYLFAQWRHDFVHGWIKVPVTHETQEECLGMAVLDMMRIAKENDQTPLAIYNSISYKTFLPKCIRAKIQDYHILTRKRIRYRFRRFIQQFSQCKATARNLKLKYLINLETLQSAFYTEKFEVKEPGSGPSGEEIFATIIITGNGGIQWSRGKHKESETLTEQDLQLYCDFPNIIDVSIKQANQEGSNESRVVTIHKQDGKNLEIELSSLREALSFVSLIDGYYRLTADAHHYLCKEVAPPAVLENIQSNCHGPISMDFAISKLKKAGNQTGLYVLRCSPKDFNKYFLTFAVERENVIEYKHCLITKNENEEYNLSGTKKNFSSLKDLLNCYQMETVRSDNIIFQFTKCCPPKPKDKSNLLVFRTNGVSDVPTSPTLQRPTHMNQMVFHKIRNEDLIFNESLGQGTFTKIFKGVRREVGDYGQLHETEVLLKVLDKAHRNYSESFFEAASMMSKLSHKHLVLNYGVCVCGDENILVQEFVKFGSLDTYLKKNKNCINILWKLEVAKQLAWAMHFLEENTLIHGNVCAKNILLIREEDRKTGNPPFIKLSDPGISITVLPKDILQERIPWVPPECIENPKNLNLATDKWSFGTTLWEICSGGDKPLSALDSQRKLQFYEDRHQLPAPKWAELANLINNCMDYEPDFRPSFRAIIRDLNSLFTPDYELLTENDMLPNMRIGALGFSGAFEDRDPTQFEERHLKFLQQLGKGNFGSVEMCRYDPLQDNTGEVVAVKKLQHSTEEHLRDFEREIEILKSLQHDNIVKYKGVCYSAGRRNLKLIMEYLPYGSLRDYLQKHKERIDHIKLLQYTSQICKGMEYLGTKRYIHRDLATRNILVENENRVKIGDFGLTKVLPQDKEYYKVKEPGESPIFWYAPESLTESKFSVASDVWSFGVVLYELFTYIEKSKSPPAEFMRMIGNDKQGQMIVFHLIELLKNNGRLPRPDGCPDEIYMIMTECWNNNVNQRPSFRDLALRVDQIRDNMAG

[3] = molecular target: CDK9/cyclin T1 (Homo sapiens, UniProt P50750); experiment: Inhibition of CDK9/Cyclin-T1 (unknown origin) preincubated for 10 mins followed by substrate addition and measured after 60 mins in presence of ATP by ADP-Glo reagent based assay; assay type: protein-complex assay
Chain of CDK9/cyclin T1 (O60563 whole entry): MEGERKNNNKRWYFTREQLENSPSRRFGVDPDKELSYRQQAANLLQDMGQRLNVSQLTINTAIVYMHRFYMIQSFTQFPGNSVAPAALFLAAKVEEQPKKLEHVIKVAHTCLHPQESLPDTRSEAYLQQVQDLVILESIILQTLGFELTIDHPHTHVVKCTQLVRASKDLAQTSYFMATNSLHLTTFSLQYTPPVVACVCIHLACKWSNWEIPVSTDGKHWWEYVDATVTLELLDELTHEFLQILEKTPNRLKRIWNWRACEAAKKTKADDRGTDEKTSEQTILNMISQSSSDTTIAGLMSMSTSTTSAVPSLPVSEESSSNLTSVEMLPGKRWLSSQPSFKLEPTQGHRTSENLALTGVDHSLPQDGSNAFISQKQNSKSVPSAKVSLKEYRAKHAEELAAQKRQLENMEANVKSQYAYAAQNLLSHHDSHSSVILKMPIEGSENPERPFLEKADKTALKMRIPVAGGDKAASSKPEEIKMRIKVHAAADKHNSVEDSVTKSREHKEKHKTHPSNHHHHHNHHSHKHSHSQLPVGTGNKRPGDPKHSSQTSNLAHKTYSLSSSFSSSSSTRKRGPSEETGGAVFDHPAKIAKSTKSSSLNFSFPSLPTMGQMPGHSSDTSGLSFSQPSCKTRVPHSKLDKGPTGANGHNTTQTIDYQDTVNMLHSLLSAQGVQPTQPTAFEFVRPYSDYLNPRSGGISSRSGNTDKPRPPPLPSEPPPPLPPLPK
Chain of CDK9/cyclin T1 (P50750 whole entry): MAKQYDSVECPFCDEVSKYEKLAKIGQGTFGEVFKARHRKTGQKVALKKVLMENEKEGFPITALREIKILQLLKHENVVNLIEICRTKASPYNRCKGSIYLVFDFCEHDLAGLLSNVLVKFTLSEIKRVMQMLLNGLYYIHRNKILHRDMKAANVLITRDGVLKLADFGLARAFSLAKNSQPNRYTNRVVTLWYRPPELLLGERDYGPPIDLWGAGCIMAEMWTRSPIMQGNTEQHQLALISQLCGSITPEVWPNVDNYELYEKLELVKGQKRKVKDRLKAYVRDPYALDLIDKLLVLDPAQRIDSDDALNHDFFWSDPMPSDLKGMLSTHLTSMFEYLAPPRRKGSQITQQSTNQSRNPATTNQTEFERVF

[4] = molecular target: CDK2/Cyclin A2 (Homo sapiens, UniProt P24941); experiment: Inhibition of CDK2/Cyclin A2 (unknown origin) preincubated for 10 mins followed by substrate addition and measured after 60 mins in presence of ATP by ADP-Glo reagent based assay; assay type: protein-complex assay
[5] = system: HCC827; experiment: Antiproliferative activity against human HCC827 cells incubated for 72 hrs by MTT assay; assay type: functional, cell-based; conditions: HCC827, 72 h
[6] = system: NCI-H1975; experiment: Antiproliferative activity against human NCI-H1975 cells incubated for 72 hrs by MTT assay; assay type: functional, cell-based; conditions: NCI-H1975, 72 h
[7] = Downregulation of Mcl-1 in human NCI-H1975 cells at 500 nM relative to control; assay type: functional
[8] = molecular target: CDK9/cyclin T1 (Homo sapiens) (UniProt O60563+P50750); experiment: Inhibition of CDK9/Cyclin-T1 (unknown origin) at 20 nM preincubated for 10 mins followed by substrate addition and measured after 60 mins in presence of ATP by ADP-Glo reagent based assay relative to control; assay type: protein-complex assay; conditions: time 70.0 min
[9] = molecular target: CDK2/Cyclin A2 (Homo sapiens) (UniProt P24941+P20248); experiment: Inhibition of CDK2/Cyclin A2 (unknown origin) at 100 nM preincubated for 10 mins followed by substrate addition and measured after 60 mins in presence of ATP by ADP-Glo reagent based assay relative to control; assay type: protein-complex assay; conditions: time 70.0 min
[10] = Antiproliferative activity against human Osimertinib-resistant NCI-H1975 cell incubated for 72 hrs by MTT assay; assay type: functional, cell-based; conditions: NCI-H1975, 72 h
[11] = system: NCI-H1975; experiment: Downregulation of Mcl-1 level in human Osimertinib-resistant NCI-H1975 cell at 2 uM measured after 8 hrs by Western blotting analysis; assay type: functional, cell-based
[12] = Induction of apoptosis in human Osimertinib-resistant NCI-H1975 cell assessed as viable cells at 500 nM measured after 16 hrs by Annexin V-FITC and PI staining based analysis (reference value: 94.9%); assay type: functional; conditions: read-out: Activity
[13] = Induction of apoptosis in human Osimertinib-resistant NCI-H1975 cell assessed as viable cells at 2000 nM measured after 16 hrs by Annexin V-FITC and PI staining based analysis (reference value: 94.9%); assay type: functional; conditions: read-out: Activity
[14] = Induction of apoptosis in human Osimertinib-resistant NCI-H1975 cell assessed as early apoptotic cells at 500 nM measured after 16 hrs by Annexin V-FITC and PI staining based analysis (reference value: 1.78%); assay type: functional
[15] = Induction of apoptosis in human Osimertinib-resistant NCI-H1975 cell assessed as early apoptotic cells at 2000 nM measured after 16 hrs by Annexin V-FITC and PI staining based analysis (reference value: 1.78%); assay type: functional
[16] = Induction of apoptosis in human Osimertinib-resistant NCI-H1975 cell assessed as late apoptotic cells at 500 nM measured after 16 hrs by Annexin V-FITC and PI staining based analysis (reference value: 2.84%); assay type: functional
[17] = Induction of apoptosis in human Osimertinib-resistant NCI-H1975 cell assessed as late apoptotic cells at 2000 nM measured after 16 hrs by Annexin V-FITC and PI staining based analysis (reference value: 2.84%); assay type: functional
[18] = Induction of apoptosis in human Osimertinib-resistant NCI-H1975 cell assessed as necrotic cells at 500 nM measured after 16 hrs by Annexin V-FITC and PI staining based analysis (reference value: 0.50%); assay type: functional
[19] = Induction of apoptosis in human Osimertinib-resistant NCI-H1975 cell assessed as necrotic cells at 2000 nM measured after 16 hrs by Annexin V-FITC and PI staining based analysis (reference value: 0.50%); assay type: functional
[20] = cells; conditions: Homo sapiens, Osimertinib-resistant HCC827AR cell, 72 h
[21] = system: HCC827; experiment: Downregulation of Mcl-1 level in human HCC827 cells measured after 8 hrs by Western blotting analysis; assay type: functional, cell-based; conditions: dose <= 0.5 µM
[22] = system: NCI-H1975; experiment: Downregulation of Mcl-1 level in human NCI-H1975 cells measured after 8 hrs by Western blotting analysis; assay type: functional, cell-based; conditions: dose <= 0.5 µM
[23] = system: Osimertinib-resistant HCC827AR cell; experiment: Downregulation of Mcl-1 level in human Osimertinib-resistant HCC827 cell at upto 0.5 uM measured after 8 hrs by Western blotting analysis; assay type: functional, cell-based
[24] = system: NCI-H1975; experiment: Downregulation of Mcl-1 level in human Osimertinib-resistant NCI-H1975 cell at upto 0.5 uM measured after 8 hrs by Western blotting analysis; assay type: functional, cell-based
[25] = Antiproliferative activity against human Osimertinib-resistant NCI-H1975 cell assessed as cell growth inhibition at 125 nM incubated for 72 hrs by MTT assay relative to control; assay type: functional; design: scale not given: the % may be the effect or the level left
[26] = Induction of apoptosis in human Osimertinib-resistant NCI-H1975 cell assessed as viable cells at 125 nM measured after 16 hrs by Annexin V-FITC and PI staining based analysis (reference value: 94.9%); assay type: functional; conditions: read-out: Activity
[27] = Induction of apoptosis in human Osimertinib-resistant NCI-H1975 cell assessed as early apoptotic cells at 125 nM measured after 16 hrs by Annexin V-FITC and PI staining based analysis (Rvb =1.78%); assay type: functional
[28] = Induction of apoptosis in human Osimertinib-resistant NCI-H1975 cell assessed as late apoptotic cells at 125 nM measured after 16 hrs by Annexin V-FITC and PI staining based analysis (Rvb =2.84%); assay type: functional
[29] = Induction of apoptosis in human Osimertinib-resistant NCI-H1975 cell assessed as necrotic cells at 125 nM measured after 16 hrs by Annexin V-FITC and PI staining based analysis (reference value: 0.50%); assay type: functional

Structure (SMILES)	IC50 [3] [nM]	IC50 [4] [nM]	IC50 [5] [nM]	IC50 [6] [nM]	Activity [7] [%]	also measured
O=C(NC1CCOCC1)c1ccc2cc1OCCCCOc1cc(ccc1F)-c1nc(ncc1F)N2	2.8	95.1	181	283	99	inhibition [1]: 60.9%; inhibition [2]: 73.2%
O=C(NC1CCCNCC1)c1ccc2cc1OCCCCOc1cc(ccc1F)-c1nc(ncc1F)N2 (stereo unspecified)	3.1	54.3	403	116	21.1	
CN1CCC(NC(=O)c2ccc3cc2OCCCCCCOc2cc(ccc2F)-c2nc(ncc2F)N3)CC1	3.2	30.7		135		
O=C(NCCN1CCOCC1)c1ccc2cc1OCCCCOc1cc(ccc1F)-c1nc(ncc1F)N2	0.9	34.2	182	21	95.6	inhibition [1]: 77.3%; inhibition [2]: 79.7%
O=C(c1ccc2cc1OCCCCOc1cc(ccc1F)-c1nc(ncc1F)N2)N1CCNCC1			2470	1060		inhibition [8]: 45.7%; inhibition [9]: 32.9%
CN(C)CCNC(=O)c1ccc2cc1OCCCCOc1cc(ccc1F)-c1nc(ncc1F)N2	1.1	3.2	31	26	82.6	
O=C(c1ccc2cc1OCCCCOc1cc(ccc1F)-c1nc(ncc1F)N2)N1CCC(N2CCOCC2)CC1			4780	2680	-34	inhibition [8]: 20.9%; inhibition [9]: 9.1%
O=C(c1ccc2cc1OCCCCOc1cc(ccc1F)-c1nc(ncc1F)N2)N1CCCNCC1			1940	1180	-27	inhibition [8]: 27%; inhibition [9]: 21.2%
O=C(NCCN1CCOCC1)c1ccc2cc1OCCCCCOc1cc(ccc1F)-c1nc(ncc1F)N2	1.1	66.2	267	115	73.4	inhibition [1]: 62.8%; inhibition [2]: 56.5%
O=C(NC1CCC(N2CCOCC2)CC1)c1ccc2cc1OCCCCCCOc1cc(ccc1F)-c1nc(ncc1F)N2 (stereo unspecified)	2	715	421	814	64.6	
O=C(NCCN1CCOCC1)c1ccc2cc1OCCOCCOc1cc(ccc1F)-c1nc(ncc1F)N2	2.1	10	52	54		inhibition [1]: 68.7%; inhibition [2]: 71.4%
O=C(NCC1CCNCC1)c1ccc2cc1OCCCCOc1cc(ccc1F)-c1nc(ncc1F)N2	2.1	15	343	336	1.6	
O=C(NCCN1CCOCC1)c1ccc2cc1COCCCCOCc1cc(ccc1F)-c1nc(ncc1F)N2	7.7	140		613		
O=C(NC1CCN(C2CCOCC2)CC1)c1ccc2cc1OCCCCCCOc1cc(ccc1F)-c1nc(ncc1F)N2	2.6	117	255	373	54.4	
COc1cc(F)ccc1-c1ncnc(Nc2cccc(C[S@](C)(=N)=O)c2)n1 [ATUVECICLIB]						IC50 [10]: 1080 nM; Activity [11]: Active; viability at 0.5 µM [12]: 91.3%; viability at 2 µM [13]: 91.9%; Activity [14]: 3.16%; Activity [15]: 2.58%; Activity [16]: 4.49%; Activity [17]: 3.66%; Activity [18]: 1.06%; Activity [19]: 1.84%; IC50 [20]: 990 nM
COc1cc(F)ccc1-c1ncnc(Nc2ccc(C(=O)NCCN(C)C)cc2)n1	3.1	24	340000	254000		
C=CC(=O)Nc1cc(Nc2nccc(-c3cn(C)c4ccccc34)n2)c(OC)cc1N(C)CCN(C)C [OSIMERTINIB]			57	[…]		IC50 [10]: 4690 nM; Activity [21]: Dose-Dependent Effect; Activity [22]: Dose-Dependent Effect; Activity [23]: inactive; Activity [24]: inactive; Activity [25]: 10%; viability at 0.125 µM [26]: 92.4%; Activity [27]: 2.52%; Activity [28]: 1.8%; Activity [29]: 3.25%
O=C(c1ccc2cc1OCCCCOc1cc(ccc1F)-c1nc(ncc1F)N2)N1CCC(N2CCOCC2)C1 (stereo unspecified)			5170	1870		inhibition [8]: 27.6%; inhibition [9]: 11.7%
CN1CCN(CCNC(=O)c2ccc3cc2OCCCCCCOc2cc(ccc2F)-c2nc(ncc2F)N3)CC1	2.3	25.4		143		
